Values after ≈ are worked out from the molar mass of the structure shown. Read-outs that look alike come from different tables or passages of the source.
Assays:
[1] = test system: PKB Ser473 phosphorylation in Rat1-myr-HA-p110 alpha cells; assay: Reverse protein array assay, PKB Ser473 phosphorylation in Rat1-myr-p110 alpha cells; type: cell-based; conditions: 0.5 h, pAkt Ser473, 30 minutes compound incubation, read-out: p-PKB IC50
Procedure, shortened: (§1)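 After at least 20 h of culture, the p110 isoform-transfected Rat1 lines receive compound in an 8-step dilution series, keeping DMSO at 0.2%, for 30 minutes. Cells are then lysed and lysates arrayed on chips for fluorescence detection of Ser473-phosphorylated PKB.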

Solubility at pH 6.8 = type: physicochemical
Procedure, shortened: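 Following the procedure of Zhou et al. (2007), compound solubility was determined at pH 6.8.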

[2] = test system: PKB Ser473 phosphorylation in Rat1-myr-HA-p110 delta cells; assay: Reverse protein array assay, PKB Ser473 phosphorylation in Rat1-myr-p110 delta cells; type: cell-based; conditions: read-out: p-PKB IC50
Procedure, shortened: as §1

PI3K delta = target: T1, PI3K delta (Homo sapiens, UniProt O00329); assay: PI3K delta kinase assay (Kinase-Glo luminescence); type: biochemical
T1 construct: for the full-length p110-d subunit are generated and fused by overlapping PCR; p85(iSH2) fusion partner (see partner chain) (N); His tag (C); made in house; host or cells: baculovirus; Tn5 (Trichoplusia ni) or TiniPro insect cells
Procedure, shortened: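 Construct BV-1060, p85 iSH2–linker–full-length p110δ, His-tagged, at 10 nM, with 1 μM ATP and 10 μg/mL phosphatidylinositol in pH 7.5 Tris, 3 mM MgCl2, 50 mM NaCl, 0.05% CHAPS. Run 60 min at room temperature; remaining ATP read by Kinase-Glo luminescence; IC50 from 4-parameter logistic fit of 8 concentrations.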

[3] = test system: PKB Ser473 phosphorylation in Rat1-myr-HA-p110 beta cells; assay: Reverse protein array assay, PKB Ser473 phosphorylation in Rat1-myr-p110 beta cells; type: cell-based; conditions: 0.5 h, pAkt Ser473, 30 minutes incubation, read-out: p-PKB IC50
Procedure, shortened: as §1

[4] = pH 6.8, aqueous buffer, thermodynamic from solid, read-out: solubility

T1 sequence (O00329 with tags, fused parts or gaps limits assumed): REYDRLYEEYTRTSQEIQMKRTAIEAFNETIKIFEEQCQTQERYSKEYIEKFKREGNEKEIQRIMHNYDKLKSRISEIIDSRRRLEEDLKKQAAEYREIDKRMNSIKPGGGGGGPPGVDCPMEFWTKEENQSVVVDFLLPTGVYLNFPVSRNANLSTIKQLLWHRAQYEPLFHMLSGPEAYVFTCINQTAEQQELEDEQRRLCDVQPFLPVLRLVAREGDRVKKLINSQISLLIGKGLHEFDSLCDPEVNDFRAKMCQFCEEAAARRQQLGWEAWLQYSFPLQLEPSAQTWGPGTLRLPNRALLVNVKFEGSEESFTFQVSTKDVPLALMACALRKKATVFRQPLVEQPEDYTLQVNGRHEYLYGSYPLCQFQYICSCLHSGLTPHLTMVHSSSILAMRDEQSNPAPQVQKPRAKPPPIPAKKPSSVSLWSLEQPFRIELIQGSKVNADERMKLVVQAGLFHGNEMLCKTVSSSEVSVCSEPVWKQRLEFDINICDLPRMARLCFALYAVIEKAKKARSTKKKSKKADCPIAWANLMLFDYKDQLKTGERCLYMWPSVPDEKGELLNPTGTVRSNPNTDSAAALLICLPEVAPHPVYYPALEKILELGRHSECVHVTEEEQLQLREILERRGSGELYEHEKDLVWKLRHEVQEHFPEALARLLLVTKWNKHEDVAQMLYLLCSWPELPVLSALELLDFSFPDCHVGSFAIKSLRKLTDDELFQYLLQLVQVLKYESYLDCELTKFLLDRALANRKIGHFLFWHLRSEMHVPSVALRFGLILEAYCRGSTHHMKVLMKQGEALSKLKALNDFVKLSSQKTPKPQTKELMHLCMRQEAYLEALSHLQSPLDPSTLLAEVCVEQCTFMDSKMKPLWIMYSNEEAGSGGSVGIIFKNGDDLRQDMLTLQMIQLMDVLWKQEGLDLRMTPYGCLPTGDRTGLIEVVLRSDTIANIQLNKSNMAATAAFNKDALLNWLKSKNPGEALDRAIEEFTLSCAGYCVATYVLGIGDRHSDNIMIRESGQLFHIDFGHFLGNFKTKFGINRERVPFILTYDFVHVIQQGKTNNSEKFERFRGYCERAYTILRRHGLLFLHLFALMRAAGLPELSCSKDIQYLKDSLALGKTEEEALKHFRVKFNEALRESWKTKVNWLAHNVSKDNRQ

Row | SMILES | IC50 [1] | solubility (Solubility at pH 6.8; [4]) | IC50 [2] | IC50 (PI3K delta) | IC50 [3] | solubility (Solubility at pH 6.8; pH 6.8)
1 | CCn1cc(-n2c(=O)n(C)c3cnc4ccc(-c5ccc(OCCOC)c(OC)c5)cc4c32)c(C)n1 [Example 30.2, 1-(1-Ethyl-3-methyl-1H-pyrazol-4-yl)-8-[3-methoxy-4-(2-methoxy-ethoxy)-phenyl]-3-methyl-1,3-dihydro-imidazo[4,5-c]quinolin-2-one] | 44 nM | 9 µg/mL (≈ 18.5 µM) | 155 nM | 42 nM | 43 nM | –
2 | Cc1nn(C)cc1-n1c(=O)n(C)c2cnc3ccc(-c4cccc(O)c4)cc3c21 [Example 32.1, 1-(1,3-Dimethyl-1H-pyrazol-4-yl)-8-(3-hydroxy-phenyl)-3-methyl-1,3-dihydro-imidazo[4,5-c]quinolin-2-one] | 85 nM | – | 193 nM | 47 nM | 110 nM | 2 µg/mL (≈ 5.19 µM)
3 | Cc1nn(C)cc1-n1c(=O)n(C)c2cnc3ccc(-c4cccc5c4OC(F)(F)O5)cc3c21 [Example 35, 8-(2,2-Difluoro-benzo[1,3]dioxol-4-yl)-1-(1,3-dimethyl-1H-pyrazol-4-yl)-3-methyl-1,3-dihydro-imidazo[4,5-c]quinolin-2-one] | 8 nM | 3 µg/mL (≈ 6.68 µM) | 22 nM | 29 nM | 10 nM | –
4 | Cc1nn(C)cc1-n1c(=O)n(C)c2cnc3ccc(-c4ccccc4)cc3c21 [Example 37.1, 1-(1,3-Dimethyl-1H-pyrazol-4-yl)-3-methyl-8-phenyl-1,3-dihydro-imidazo[4,5-c]quinolin-2-one] | 98 nM | 3 µg/mL (≈ 8.12 µM) | 219 nM | 449 nM | 135 nM | –
5 | Cc1nn(C)cc1-n1c(=O)n(C)c2cnc3ccc(-c4cccc(S(C)(=O)=O)c4)cc3c21 [Example 40, 1-(1,3-Dimethyl-1H-pyrazol-4-yl)-8-(3-methanesulfonyl-phenyl)-3-methyl-1,3-dihydro-imidazo[4,5-c]quinolin-2-one] | 77 nM | – | 138 nM | 23 nM | 65 nM | 2 µg/mL (≈ 4.47 µM)
6 | Cc1nn(C)cc1-n1c(=O)n(C)c2cnc3ccc(-c4ccc(C(N)=O)cc4)cc3c21 [Example 41, 4-[1-(1,3-Dimethyl-1H-pyrazol-4-yl)-3-methyl-2-oxo-2,3-dihydro-1H-imidazo[4,5-c]quinolin-8-yl]-benzamide] | 48 nM | 14 µg/mL (≈ 33.9 µM) | 92 nM | 82 nM | 37 nM | –
7 | Cc1nn(C)cc1-n1c(=O)n(C)c2cnc3ccc(-c4cccc(C(N)=O)c4)cc3c21 [Example 46, 3-[1-(1,3-Dimethyl-1H-pyrazol-4-yl)-3-methyl-2-oxo-2,3-dihydro-1H-imidazo[4,5-c]quinolin-8-yl]-benzamide] | 214 nM | 8 µg/mL (≈ 19.4 µM) | 489 nM | 292 nM | 541 nM | –
8 | Cc1nn(C)cc1-n1c(=O)n(C)c2cnc3ccc(-c4ccc5c(c4)CC(=O)N5)cc3c21 [Example 49, 1-(1,3-Dimethyl-1H-pyrazol-4-yl)-3-methyl-8-(2-oxo-2,3-dihydro-1H-indol-5-yl)-1,3-dihydro-imidazo[4,5-c]quinolin-2-one] | 51 nM | 33 µg/mL (≈ 77.7 µM) | 442 nM | 106 nM | 152 nM | –
9 | Cc1nn(C)cc1-n1c(=O)n(C)c2cnc3ccc(-c4cccc(S(=O)(=O)N(C)C)c4)cc3c21 [Example 53.1, 3-[1-(1,3-Dimethyl-1H-pyrazol-4-yl)-3-methyl-2-oxo-2,3-dihydro-1H-imidazo[4,5-c]quinolin-8-yl]-N,N-dimethyl-benzenesulfonamide] | 15 nM | 3 µg/mL (≈ 6.3 µM) | 128 nM | 12 nM | 43 nM | –
10 | COCc1cncc(-c2ccc3ncc4c(c3c2)n(-c2cn(C)nc2C)c(=O)n4C)c1 [Example 54.1, 1-(1,3-Dimethyl-1H-pyrazol-4-yl)-8-(5-methoxymethyl-pyridin-3-yl)-3-methyl-1,3-dihydro-imidazo[4,5-c]quinolin-2-one] | 95 nM | 164 µg/mL (≈ 396 µM) | 112 nM | 19 nM | 92 nM | –
11 | CCOc1cncc(-c2ccc3ncc4c(c3c2)n(-c2cn(C)nc2Cl)c(=O)n4C)c1 [Example 56.4, 1-(3-Chloro-1-methyl-1H-pyrazol-4-yl)-8-(5-ethoxy-pyridin-3-yl)-3-methyl-1,3-dihydro-imidazo[4,5-c]quinolin-2-one] | 9 nM | 14 µg/mL (≈ 32.2 µM) | 11 nM | 6 nM | 11 nM | –
12 | Cc1nn(C)cc1-n1c(=O)n(C)c2cnc3ccc(-c4cncc(OC(C)C)c4)cc3c21 [Example 58.1, 1-(1,3-Dimethyl-1H-pyrazol-4-yl)-8-(5-isopropoxy-pyridin-3-yl)-3-methyl-1,3-dihydro-imidazo[4,5-c]quinolin-2-one] | 21 nM | > 428 µg/mL | 43 nM | 8 nM | 30 nM | –
13 | CCN(C)C(=O)Cn1cc(-n2c(=O)n(C)c3cnc4ccc(-c5cncc(OC(C)C)c5)cc4c32)c(C)n1 [Example 58.5, N-Ethyl-2-{4-[8-(5-isopropoxy-pyridin-3-yl)-3-methyl-2-oxo-2,3-dihydro-imidazo[4,5-c]quinolin-1-yl]-3-methyl-pyrazol-1-yl}-N-methyl-acetamide] | 53 nM | 466 µg/mL (≈ 907 µM) | 357 nM | 39 nM | 102 nM | –
14 | COc1ncc(-c2ccc3ncc4c(c3c2)n(-c2cn(C)nc2C)c(=O)n4C)cc1NC(C)=O [Example 64, N-{5-[1-(1,3-Dimethyl-1H-pyrazol-4-yl)-3-methyl-2-oxo-2,3-dihydro-1H-imidazo[4,5-c]quinolin-8-yl]-2-methoxy-pyridin-3-yl}-acetamide] | 12 nM | 3 µg/mL (≈ 6.56 µM) | 157 nM | 51 nM | 24 nM | –
15 | COc1ncc(-c2ccc3ncc4c(c3c2)n(-c2cn(C)nc2C)c(=O)n4C)cc1[N+](=O)[O-] [Example 66, 1-(1,3-dimethyl-1H-pyrazol-4-yl)-8-(6-methoxy-5-nitro-pyridin-3-yl)-3-methyl-1,3-dihydro-imidazo[4,5-c]quinolin-2-one] | 96 nM | – | 176 nM | 19 nM | 86 nM | 2 µg/mL (≈ 4.49 µM)
16 | Cc1nn(C)cc1-n1c(=O)n(C)c2cnc3ccc(-c4cnc5c(c4)nnn5C)cc3c21 [Example 72, 1-(1,3-Dimethyl-1H-pyrazol-4-yl)-3-methyl-8-(3-methyl-3H-[1,2,3]triazolo[4,5-b]pyridin-6-yl)-1,3-dihydro-imidazo[4,5-c]quinolin-2-one] | 166 nM | 37 µg/mL (≈ 87 µM) | 225 nM | 29 nM | 299 nM | –
17 | Cc1nn(C)cc1-n1c(=O)n(C)c2cnc3ccc(-c4cnc5c(c4)ncn5C)cc3c21 [Example 74, 1-(1,3-Dimethyl-1H-pyrazol-4-yl)-3-methyl-8-(3-methyl-3H-imidazo[4,5-b]pyridin-6-yl)-1,3-dihydro-imidazo[4,5-c]quinolin-2-one] | 20 nM | 8 µg/mL (≈ 18.8 µM) | 280 nM | 43 nM | 56 nM | –

From patent US20140005163A1 (NOVARTIS AG, priority 2010, published 2014)
